Tests used:
[1] = system: MelanoDerm tissues; assay: Cytotoxicity by microscopic observation of MelanoDerm tissues; assay type: cell-based; settings: 2.2 mM; 2 weeks
Experimental: Tissues were equilibrated at 37° C. for 60 min. and undiluted samples (25 μl) of test materials were applied on top of tissues in duplicates. DMI and kojic acid were applied at 2.5% and 2% (w:v) respectively (dissolved in double distilled water). Tissue culture was pursued in the pigmentation-inducing medium […]-113 for 14 days, with reapplication of test materials and changes of tissue culture media every 2-3 days. Results and Discussion: From the macroscopic documentation of all the MelanoDerm tissues at the end of the experiment, differences of color are clearly visible between the solvent controls and some test materials. Table 34 informs whether cytotoxicity may have played a role in these differences. Table 34 also reports the non-invasive MelanoDerm color measurement performed with portable spectrophotometer. [table]

[2] = system: melanin production in MelanoDerm™ skin substitute; assay: Melanin-modulatory effect in MelanoDerm skin substitutes (color measurement, melanin extraction); assay type: cell-based
Experimental: Objective: The objective of this assay was to determine the ability of the test materials (dimethylisosorbide [DMI], retinoic acid [ATRA], 10% w/w NEAR-1 in dimethylisosorbide [NEAR-1], Niacinamide PC [NAD], and Kojic Acid [KA]) and combinations thereof to inhibit melanin production in MelanoDerm™ skin substitute model. The effect of these experimental conditions on the secretion of the proinflammatory cytokine IL-8 was also assessed, as a surrogate for skin irritation potential.
Tissues were equilibrated at 37° C. for 60 min. and undiluted samples (25 μl) of test materials were applied on top of tissues in duplicates. DMI and kojic acid were applied at 2.5% and 2% (w:v) respectively (dissolved in double distilled water). Tissue culture was pursued in the pigmentation-inducing medium EPI-100-NMM-113 for 14 days, with reapplication of test materials and changes of tissue culture media every 2-3 days.
At the end of the experiment, tissue pigmentation was quantified non-invasively with NS800 portable spectrophotometer (3NH Technology Co., Ltd., China). This instrument is a reflectance spectrophotometer that measures reflected light in the visible spectrum (range: 400-700 nm) recording colors in a three-dimensional space known as CIEL*a*b* color space. In this project, the L* value representing the lightness of the color was used for color assessment. For the purpose of this experiment, the range of the L* parameter spanned from 17.8 (black background) to 87.8 (white background).
For melanin quantification, the MelanoDerms were frozen, solubilized in Solvable™ (Perkin Elmer) and melanin was extracted at 95° C. overnight. The colorimetric signals proportional to the concentration of extracted melanin, as well as those proportional to the IL-8 in the tissue-conditioned medium in the ELISA test were quantified with Molecular Devices microplate spectrophotometer MAX190 at 490 nm and 405 nm.

[3] = system: IL-8; assay: IL-8 in MelanoDerm tissue culture-conditioned medium by ELISA (skin irritation surrogate); assay type: cell-based, Human; settings: day 14
Experimental: Objective: The objective of this assay was to determine the ability of the test materials (dimethylisosorbide [DMI], retinoic acid [ATRA], 10% w/w NEAR-1 in dimethylisosorbide [NEAR-1], Niacinamide PC [NAD], and Kojic Acid [KA]) and combinations thereof to inhibit melanin production in MelanoDerm™ skin substitute model. The effect of these experimental conditions on the secretion of the proinflammatory cytokine IL-8 was also assessed, as a surrogate for skin irritation potential. Tissue culture-conditioned media were assayed for the presence of IL-8 by indirect ELISA (using Invitrogen IL-8 Human CytoSet, cat. #CHC 1303). For melanin quantification, the MelanoDerms were frozen, solubilized in Solvable™ (Perkin Elmer) and melanin was extracted at 95° C. overnight. The colorimetric signals proportional to the concentration of extracted melanin, as well as those proportional to the IL-8 in the tissue-conditioned medium in the ELISA test were quantified with Molecular Devices microplate spectrophotometer MAX190 at 490 nm and 405 nm.

[4] = system: Retinoic Acid Response Element (RARE) transcription factor pathway; assay: Cignal RARE Reporter Assay (firefly luciferase) in HEK293 cells; assay type: cell-based; settings: 24 h, vs water
Description: Objective: Retinoic Acid Receptor (RAR) controls gene transcription by binding to Retinoid Acid Response Elements (RAREs) in DNA. This process is modulated by all trans retinoic acid (ATRA)—a compound with well-established anti-aging skin benefits. […] Cignal RARE Reporter Assay® is designed to screen for such compounds using cell cultures. The objective of this project was to test 6 compounds (retinoic acid (ATRA), retinol, vitamin A palmitate, retinal, 10% w/w Near-1 in dimethylisosorbide, and 10% w/w retinoid ester in dimethylisosorbide) for the ability to activate RARE in this Cignal RARE Reporter Assay model.
(§1) Materials & Methods: The experiments were performed using HEK293 cells (Sigma, St. Louis, Mo.; cat. #85120602) seeded at 50,000 per well in a 96 well black-wall tissue culture plate. Cells were transfected by mixing Cignal Reporter Assay firefly/renilla luciferase constructs (cat. #CCS-016L; Qiagen) with Attractene Transfection Reagent (Qiagen) in Opti-MEM supplemented with 1% MEM Non-essential amino acid solution without L-glutamine. After medium change test materials were added and their effect on RARE induction was quantified 24 h later with the Dual-Luciferase Reporter Assay System (cat. #E1960; Promega).

[5] = system: Retinoid X receptor (RXR) transcription factor pathway; assay: Cignal RXR Reporter Assay (firefly luciferase) in HEK293 cells; assay type: cell-based; settings: for RXR activation (% control): 24 h, vs water
Description: Objective: Retinoid X receptors (RXRs) are one class of nuclear receptors through which retinoids mediate their biological effects. These receptors function as transcription factors by binding as heterodimers to specific sequences in the promoters of target genes. The protein encoded by this gene is a member of the steroid and thyroid hormone receptor superfamily of transcriptional regulators. One of its ligands is all trans retinoic acid (ATRA)—a compound with well-established anti-aging skin benefits. […] Cignal RXR Reporter Assay® is designed to screen for such compounds (retinoic acid (ATRA), retinal, 10% w/w Near-1 in dimethylisosorbide, and 10% w/w retinoid ester in dimethylisosorbide) using cell cultures. The objective of this project was to test four compounds for the ability to activate RXR in this Cignal RXR Reporter Assay model.
as §1, with “The” for “Materials & Methods: The”, “Cignal RXR” for “Cignal”, “#CCS9044L;” for “#CCS-016L;”, “Lglutamine.” for “L-glutamine.”, “RXR” for “RARE”
RXR is a mixture of an inducible retinoid X receptor—responsive firefly luciferase construct and a constitutively expressing Renilla construct, which acts as an internal control for normalizing transfection efficiencies and monitoring cell viability. Signal quantification was obtained with ThermoFisher Scientific Luminoskan Ascent Microplate Luminometer.

CC1=C(/C=C/C(C)=C/C=C/C(C)=C/C(=O)OCCNC(=O)c2cccnc2)C(C)(C)CCC1 [NEAR-1, 2-(nicotinamido)-ethyl retinoate]
Cytotoxicity [1]: Yes
Color measurement (whitening units) ([2]; 833 μM, 2 weeks): 30.0 whitening units
Raw *L values ([2]; 833 μM, 2 weeks): 72.8
Color measurement (whitening units) ([2]; 2.2 mM, 2 weeks): 27.4 whitening units
Melanin Content ([2]; 2.2 mM, 2 weeks): 22 µg/mL
Melanin Content (% control) ([2]; 2.2 mM, 2 weeks): 26 % control
Raw *L values ([2]; 2.2 mM, 2 weeks): 70.2
Whitening effect (ranking in the retinoid category) ([2]; NEAR-1 at 833 μM, Retinaldehyde 833 μM+NAD 835 μM): best whitening effect at non-cytotoxic concentration
IL-8 (col. Units) ([3]; 833 μM): 208 col. Units
IL-8 (col. Units) ([3]; 2.2 mM): 209 col. Units
RARE-mediated firefly luciferase expression, % control ([4]; 1 μM): 461 % control
RARE-mediated firefly luciferase expression, Fold increase ([4]; 1 μM): 4.6
RARE-mediated firefly luciferase expression, % control ([4]; 5 μM): 652 % control
RARE-mediated firefly luciferase expression, Fold increase ([4]; 5 μM): 6.5
RARE-mediated firefly luciferase expression, % control ([4]; 10 μM): 586 % control
RARE-mediated firefly luciferase expression, Fold increase ([4]; 10 μM): 5.8
RXR activation (% control) ([5]; 1 μM): 103 % control
RXR activation (% control) ([5]; 5 μM): 112 % control
RXR activation (% control) ([5]; 10 μM): 127 % control
modulatory effect on RXR-mediated gene expression ([5]; 10 uM, statistically-significant): 1.3 fold
